Patent publication US8426649B2, “Cyclopropenones and the photochemical generation of cyclic alkynes therefrom” (University of Georgia Research Foundation, Inc., priority 2009, dated 2013)
Like-named read-outs stand apart in the source and are kept apart here.

Assays:
[1] = literature values (Baskin 2007; Ning/Boons 2008), cited from earlier work
[2] = tested on: Jurkat cells; test: Cell surface labeling detected by fluorescence intensity of cell lysates (avidin-FITC); assay type: cell-based, Human; settings: for Incubation time at which labeling was reaching completion: time course
Method: Having established that light activation of cyclopropenones results in the clean formation of the corresponding dibenzocyclooctynes, which can undergo cycloadditions with azides (e.g., metal-free cycloadditions in preferred embodiments) to give corresponding triazoles, attention was focused on labeling living cell modified with azido groups. Thus, Jurkat cells were cultured in the presence of […] of peracetylated N-azidoacetylmannosamine (Ac4ManNAz) for 3 days to metabolically introduce N-azidoacetyl-sialic acid (SiaNAz) groups into glycoproteins and glycolipids. As a negative control, Jurkat cells were employed that were grown in the presence of peracetylated N-acetylmannosamine (Ac4ManNAc). The cells were exposed to 30 micromolar of compound 4b, 5b, and 6b for 1 hour at room temperature. In addition, cells and cyclopropenone 5b were exposed to light (350 nm) for 1 minute to form in-situ cyclooctyne 6b and then incubated for 1 hour at room temperature. Next, the cells were washed and stained with avidin-fluorescein isothiocyanate (FITC) for 15 minutes at 4° C. The efficiency of the two-step cell surface labeling was determined by measuring the fluorescence intensity of the cell lysates.
Jurkat cells were cultured in the presence of […] of peracetylated N-azidoacetylmannosamine (Ac4ManNAz) for 3 days to metabolically introduce N-azidoacetyl-sialic acid (SiaNAz) groups into glycoproteins. As a negative control, Jurkat cells were employed that were grown in the presence of peracetylated N-acetylmannosamine (Ac4ManNAc). The cells were exposed to 30 micromoles of compound 4b, 5b, and 6b for 1 hour at 37° C. In addition, cells and cyclopropenone 5b were exposed to light (350 nm) for 1 minute to form in-situ cyclooctyne 6b and then incubated for 1 hour at 37° C. Next, the cells were washed and stained with avidin-fluorescein isothiocyanate (FITC) for 15 minutes at 4° C. and the efficiency of the two-step cell surface labeling was determined by measuring the fluorescence intensity of the cell lysates.
Jurkat cells were seeded at a density of 75,000 cells mL^−1 in a total volume of 40 mL culture medium in the presence of peracetylated N-azidoacetylmannosamine (Ac4ManNaz; 25 micromolar final concentration) and grown for 3 days, leading to the metabolic incorporation of the corresponding N-azidoacetyl sialic acid (SiaNAz) into their cell surface glycoproteins. Control cells were grown in the presence of peracetylated N-acetylmannosamine (Ac4ManNac; 25 micromolar final concentration) for 3 days. Similarly, CHO cells were grown for 3 days in the presence of Ac4ManNaz (100 micromolar final concentration) or Ac4ManNac (100 micromolar final concentration).
Jurkat cells bearing azides and control cells were washed with labeling buffer (DPBS, pH 7.4 containing 1% FBS and 1% BSA), transferred to round bottom tubes (1×10^6 cells/sample) and incubated with the biotinylated compounds 4b, 5b, or 6b (0-100 micromolar) in labeling buffer for 0-90 minutes at room temperature. To activate 5b in situ, immediately after adding the compound to the cells, the cell suspension was subjected to UV light (350 nm) for 1 minute. The cells were washed three times with cold labeling buffer and then incubated with avidin conjugated with fluorescein (0.5 microgram/ml; Molecular Probes) for 15 minutes at 4° C. Following three washes and cell lysis in passive lysis buffer (Promega), cell lysates were analysed for fluorescence intensity (485 ex/520 em) using a microplate reader (BMG Labtech). Data points were collected in triplicate and are representative of three separate experiments. Fluorescence of Jurkat cell lysates was expressed as fluorescence (arbitrary units; AU) per 800,000 cells.

[3] = tested on: Jurkat cells; test: Western blot analysis of cell surface labeling; assay type: cell-based, Human; settings: 30 micromolar, 1 hour; 5b in-situ activated
Method: To identify the nature of the azide-labeled Jurkat glycoconjugates, cell lysates were analyzed by Western blot analysis (FIG. 8). Jurkat cells grown for 3 days in the presence of Ac4ManNAc or Ac4ManNAz were incubated with compounds in-situ activated 5b or 6b (30 micromolar) and then lysed. The Western blot was probed with an anti-biotin antibody conjugated to horseradish peroxidase (HRP). […] Furthermore, similar patterns of labeling were apparent after incubation with in-situ activated 5b and 6b.
Jurkat cells were harvested by centrifugation (5 minutes at 1,400 rpm) and resuspended as 5×10^6 cells/mL. The cell suspensions (250 microliters per sample) were incubated with biotin-conjugated alkynes 4b, 5b, and 6b (30 micromolar) or without compound as control for 1 hour. To activate 5b in situ, immediately after adding the compound to the cells, the cell suspension was subjected to UV light (350 nm) for 1 minute. The cells were washed (4×10 minutes) with cold DPBS, pH 7.4 containing FBS (1%) and lysed in passive lysis buffer. The cell lysates were clarified by centrifugation at 15,000 rpm for 15 minutes and the total protein content of the clear supernatants was assessed using the bicinchonic acid assay (BCA; Pierce Biotechnology). […]

[4] = tested on: CHO cells; test: Detection of cell labeling by fluorescence microscopy; assay type: cell-based, Chinese hamster
Method: Next, attention was focused on visualizing azido-containing glycoconjugates of living cells by confocal microscopy. Thus, adherent Chinese hamster ovary (CHO) cells were cultured in the presence of Ac4ManNAz (100 μM) for three days. The resulting cell surface azido groups were reacted with in situ generated 6b (30 μM) and then visualized with avidin-Alexa fluor 488.
CHO cells bearing azides and untreated control cells were transferred to glass coverslips and cultured for 36 hours in their original medium. Live CHO cells were treated with the biotinylated compound 5b (30 micromolar) in labeling buffer (DPBS, supplemented with FBS (1%)) for 1 hour at room temperature. To activate 5b in situ, immediately after adding the compound to the cells, the cells were subjected to UV light (350 nm) for 1 minute. Next, the cells were incubated with avidin conjugated with Alexa Fluor 488 (Molecular Probes) for 15 minutes at 4° C. Cells were washed 3 times with labeling buffer and fixed with formaldehyde (3.7% in PBS). The nucleus was labeled with the far red-fluorescent TO-PRO-3 dye (Molecular Probes). The cells were mounted with PermaFluor (Thermo Electron Corporation) before imaging. Initial analysis was performed on a Zeiss Axioplan2 fluorescent microscope. […] The step size, based on the calculated optimum for each objective, was between 0.25 and 0.5 micrometers. […]

[5] = tested on: Jurkat cells; test: Measurement of cytotoxicity (trypan blue exclusion, MTT); assay type: cell-based, Human
Method: Cell viability was also examined after incubation with 5b with and without light activation followed by reincubation for 5 hours (see Examples). In both cases, the ability of the cells to reduce MTT to its insoluble formazan salt was […].
Cell viability and cell morphology were assessed by exclusion of trypan blue followed microscopic evaluation immediately after photoactivation or after reincubation of the labeled cells in cell culture medium for 5 hours or overnight. Viability was measured by quantifying the cellular ability to reduce the water-soluble tetrazolium dye 3-4,5-dimethylthiazole-2,5-diphenyl tetrazolium bromide (MTT) to its insoluble formazan salt (e.g., Sgouras et al., J. Mater. Sci.: Materials in Medicine 1990, 1:61-68). Data points were collected in triplicate and expressed as normalized values for control cells (100%).

[6] = 30 micromolar, 1 hour, room temperature, cells grown with Ac4ManNAz
[7] = 30 micromoles, 1 hour at 37° C., cells grown with Ac4ManNAz

Compound | Reported rate of the reaction of cyclooctynes with benzyl azide [1] | Cell surface labeling (fluorescence intensity of cell lysates) [2, 6] | Incubation time at which labeling was reaching completion ([2]; 30 micromolar) | Glycoprotein labeling on Western blot (anti-biotin-HRP) [3] | Cell surface labeling (fluorescence intensity of cell lysates) [2, 7] | also measured
O=C(O)COC1CCC#CC(F)(F)CC1 (centres unmarked) [2-[(6,6-difluoro-4-cyclooctyn-1-yl)oxy]-acetic acid] | 0.076 M⁻¹ s⁻¹ | – | – | – | – | –
CCCCOc1ccc2c(c1)CCc1cc(OCCOCCOC(=O)NCCOCCOCCNC(=O)CCCCC3SCC4NC(=O)NC43)ccc1C#C2 (centres unmarked) [6b, 2-{2-[(9-Butoxy-5,6-didehydro-11,12-dihydrodibenzo[a,e][8]annulen-2-yl)oxy]ethoxy}ethyl {2-[2-(2-{[5-(2-oxohexahydro-1H-thieno[3,4-d]imidazol-4-yl)pentanoyl]amino}ethoxy)ethoxy]ethyl}carbamate] | – | strong labeling | 60 min | Significant glycoprotein labeling was only observed in lysates from cells grown in the presence of Ac4ManNAz | – | Fluorescent reading compared with 4b ([2]; at low concentration): somewhat higher fluorescent reading than 4b; Staining of azido-containing glycoconjugates (confocal microscopy, avidin-Alexa fluor 488) ([4]; in situ generated, 30 μM, cells grown with Ac4ManNAz 100 μM): staining was only observed at the cell surface
CCCCOc1ccc2c(c1)CCc1cc(OCCOCCOC(=O)NCCOCCOCCNC(=O)CCCCC3SCC4NC(=O)NC43)ccc1-c1c-2c1=O (centres unmarked) [5b, 2-{2-[(9-Butoxy-1-oxo-6,7-dihydro-1H-dibenzo[a,e]cyclopropa-[c][8]annulen-4-yl)oxy]ethoxy}ethyl {2-[2-(2-{[5-(2-oxohexahydro-1H-thieno[3,4-d]imidazol-4-yl)pentanoyl]amino}ethoxy)ethoxy]ethyl}carbamate] | – | – | – | Significant glycoprotein labeling was only observed in lysates from cells grown in the presence of Ac4ManNAz | strong labeling | Cell surface labeling (fluorescence intensity of cell lysates) ([2]; in the dark (no activation), 30 micromolar, 1 hour, room temperature): low fluorescence intensities; Cell surface labeling (fluorescence intensity of cell lysates) ([2]; in the dark (no activation), 1 hour at 37° C.): low fluorescence intensities; Cell surface labeling (fluorescence intensity of cell lysates) ([2]; in-situ activation, 350 nm 1 minute, then 1 hour at 37° C.): equally efficient cell labeling; Cell surface labeling (fluorescence intensity of cell lysates) ([2]; in-situ activation, 350 nm 1 minute, then 1 hour at room temperature, 30 micromolar): equally efficient cell labeling; Cell viability and morphology (trypan blue exclusion) ([5]; 30 micromolar 5b with and without UV light activation (1 minute at 350 nm)): no changes were observed; Ability of the cells to reduce MTT to formazan ([5]; with and without light activation, reincubation for 5 hours): negligible; Staining (confocal microscopy, avidin-Alexa fluor 488) ([4]; in the dark, cells metabolically labeled with ManNAz): negligible staining
OC1Cc2ccccc2C#Cc2ccccc21 (centres unmarked) [4a, 11,12-didehydro-5,6-dihydro-dibenzo[a,e]cycloocten-5-ol] | 0.17 M⁻¹ s⁻¹ | – | – | – | – | Reported rate of the reaction of cyclooctynes with benzyl azide ([1]; listed as 11,12-didehydro-5,6-dihydro-dibenzo[a,e]cycloocten-5-ol): 0.0568 M⁻¹ s⁻¹
O=C(CCCC[C@@H]1SC[C@@H]2NC(=O)N[C@@H]21)NCCOCCOCCOCCNC(=O)OC1Cc2ccccc2C#Cc2ccccc21 (stereo partly drawn) [4b, 11,12-didehydro-5,6-dihydrodibenzo[a,e]cycloocten-5-yl ester of 19-[(3aS,4S,6aR)-hexahydro-2-oxo-1H-thieno[3,4-d]imidazol-4-yl]-15-oxo-5,8,11-trioxa-2,14-diazanonadecanoic acid, reference compound] | – | strong labeling | 60 min | – | strong labeling | –
